# ChEMBL document CHEMBL4196018, “New antitumor anthra[2,3-b]furan-3-carboxamides: Synthesis and structure-activity relationship” (Eur J Med Chem, 2018)
# pIC50: −log10 of the molar value. The source made the active and inactive calls. No cut-off for these calls is given here.
# Experiments:
# [1] = Resistance index, ratio of IC50 for human K562/4 cells to IC50 for human K562 cells; type: functional
# [2] = system: HeLa; experiment: Antiproliferative activity against human HeLa cells after 72 hrs by MTT assay; type: functional, cell-based
# [3] = system: L1210; experiment: Antiproliferative activity against mouse L1210 cells after 48 hrs by MTT assay; type: functional, cell-based; conditions: L1210, 48 h
# [4] = system: K562; experiment: Antiproliferative activity against human K562 cells after 72 hrs by MTT assay; type: functional, cell-based; conditions: K562, 72 h
# [5] = system: HCT-116; experiment: Antiproliferative activity against p53 knockout human HCT116 cells after 72 hrs by MTT assay; type: functional, cell-based; conditions: HCT-116, 72 h
# [6] = Resistance index, ratio of IC50 for p53 knockout human HCT116 cells to IC50 for human HCT116 cells; type: functional
# [7] = Antiproliferative activity against human K562/4 cells after 72 hrs by MTT assay; type: functional, cell-based; conditions: K562/4, 72 h
# [8] = molecular target: T1, DNA topoisomerase 1 (Homo sapiens) (UniProt P11387); experiment: Inhibition of human topoisomerase-1 using supercoiled pBR322 DNA as substrate after 30 mins by agarose gel electrophoresis method
# T1 sequence (whole entry): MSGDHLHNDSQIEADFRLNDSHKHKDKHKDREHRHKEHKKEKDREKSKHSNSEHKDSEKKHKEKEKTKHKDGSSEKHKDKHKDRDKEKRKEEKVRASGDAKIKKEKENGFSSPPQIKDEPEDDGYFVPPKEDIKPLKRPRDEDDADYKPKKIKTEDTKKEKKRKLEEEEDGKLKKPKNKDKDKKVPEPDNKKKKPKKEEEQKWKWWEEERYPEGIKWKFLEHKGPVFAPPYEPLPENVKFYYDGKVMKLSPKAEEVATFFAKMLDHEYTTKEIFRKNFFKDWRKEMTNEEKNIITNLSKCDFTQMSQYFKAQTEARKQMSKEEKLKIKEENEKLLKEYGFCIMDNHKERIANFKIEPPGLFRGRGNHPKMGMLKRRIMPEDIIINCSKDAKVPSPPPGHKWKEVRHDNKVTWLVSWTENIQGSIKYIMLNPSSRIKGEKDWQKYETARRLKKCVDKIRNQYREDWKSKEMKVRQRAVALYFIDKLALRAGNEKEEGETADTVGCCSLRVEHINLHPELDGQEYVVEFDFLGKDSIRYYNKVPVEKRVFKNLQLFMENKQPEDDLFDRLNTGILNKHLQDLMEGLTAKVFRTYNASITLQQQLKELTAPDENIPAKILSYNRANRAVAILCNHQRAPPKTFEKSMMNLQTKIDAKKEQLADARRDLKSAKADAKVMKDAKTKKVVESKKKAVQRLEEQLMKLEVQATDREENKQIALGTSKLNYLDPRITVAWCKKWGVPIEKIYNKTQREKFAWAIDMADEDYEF
# [9] = system: HCT-116; experiment: Antiproliferative activity against human HCT116 cells after 72 hrs by MTT assay; type: functional, cell-based; conditions: HCT-116, 72 h
# [10] = system: CCRF-CEM; experiment: Antiproliferative activity against human CEM cells after 72 hrs by MTT assay; type: functional, cell-based
# [11] = system: MKN-45; experiment: Induction of ROS generation in human MKN45 cells at 0.1 to 1 uM after 30 mins by H2DCFDA staining based flow cytometry; type: functional, cell-based
# [12] = system: TMK-1; experiment: Induction of apoptosis in human TMK1 cells after 24 hrs by Annexin V-FITC staining based flow cytometry; type: functional, cell-based
# [13] = molecular target: T1, DNA topoisomerase 1 (Homo sapiens); experiment: Inhibition of human topoisomerase-1 at 1 to 30 uM using supercoiled pBR322 DNA as substrate after 30 mins by agarose gel electrophoresis method
# [14] = system: MKN-45; experiment: Induction of apoptosis in human MKN45 cells at 1 uM after 24 hrs by Annexin V-FITC staining based flow cytometry relative to control; type: functional
# [15] = system: TMK-1; experiment: Induction of apoptosis in human TMK1 cells at 1 uM after 24 hrs by Annexin V-FITC staining based flow cytometry relative to control; type: functional
# [16] = system: MKN-45; experiment: Induction of apoptosis in human MKN45 cells after 24 hrs by Annexin V-FITC staining based flow cytometry; type: functional, cell-based
# [17] = system: TMK-1; experiment: Induction of ROS generation in human TMK1 cells at 0.1 to 1 uM after 30 mins by H2DCFDA staining based flow cytometry; type: functional, cell-based
SMILES,Ratio IC50 [1],pIC50 [2],pIC50 [3],pIC50 [4],pIC50 [5],Ratio IC50 [6],pIC50 [7],inhibition [8],pIC50 [9],pIC50 [10],Activity [11],Activity [12],inhibition [13],Activity [14],Activity [15],Activity [16],Activity [17]
N[C@@H]1CCN(C(=O)c2coc3c(O)c4c(c(O)c23)C(=O)c2ccccc2C4=O)C1,1.6,5.48,5.60,5.64,5.29,1,5.43,Dose-dependent effect,5.30,5.40,,,,,,,
COc1c2c(c(OC)c3c(C(=O)N4CC[C@H](N)C4)c(C)oc13)C(=O)c1ccccc1C2=O,1.4,4.55,4.70,4.54,4.30,1.2,4.41,,4.39,4.63,,,,,,,
Cc1oc2c(Cl)c3c(c(Cl)c2c1C(=O)N1CC[C@H](N)C1)C(=O)c1ccccc1C3=O,1.4,5.30,5.82,5.42,5.40,0.9,5.28,,5.35,5.46,,,,,,,
Cc1oc2c(O)c3c(c(O)c2c1CN1CC[C@H](N)C1)C(=O)c1ccccc1C3=O,1.4,5.64,5.36,5.89,5.62,0.8,5.74,,5.49,5.41,,,,,,,
CN[C@H]1CCN(C(=O)c2coc3c(O)c4c(c(O)c23)C(=O)c2ccccc2C4=O)C1,1.9,5.30,5.46,5.54,5.24,1,5.28,,5.23,5.34,,,,,,,
Cc1oc2c(O)c3c(c(O)c2c1C(=O)N1CC[C@H](N)C1)C(=O)c1ccccc1C3=O,1.5,6.15,6.22,6.05,5.89,1.1,5.85,,5.92,6.30,Active,Dose-dependent effect,Active,60 - 90%,60 - 90%,Dose-dependent effect,Active
Cc1oc2c(N)c3c(c(N)c2c1C(=O)N1CC[C@H](N)C1)C(=O)c1ccccc1C3=O,0.9,5.43,5.51,5.04,5.27,0.7,5.08,,5.12,5.40,,,,,,,
NC1CCCN(C(=O)c2coc3c(O)c4c(c(O)c23)C(=O)c2ccccc2C4=O)C1 (racemic),2,5.64,5.70,5.89,5.60,0.8,5.59,,5.52,5.40,,,,,,,
